The values that follow are results of earlier work, collected in patent US20220279780A1, “AGRICULTURAL FORMULATION” (ISHIHARA SANGYO KAISHA, LTD., priority 2019, published 2022).

As for `N#CCNC(=O)c1cnccc1C(F)(F)F` [flonicamid], the water solubility is 5,200 ppm.
